In patent US20190136254A1, “ALS Inhibitor Herbicide Tolerant Mutant Plants” (BASF SE, priority 2013, published 2019):

Legend:
[1] = tested on: wild-type (WT) oilseed rape; assay: Field test of visible phytotoxicity upon herbicide spraying, wild-type; assay type: in vivo, Brassica napus; details: g ai/ha: imazamox 40, bispyribac-sodium 50, propoxycarbazone-sodium 70, mesosulfuron-methyl 60, pyroxsulam 12.5 + cloquintocet-mexyl 37.5, each + rapeseed oil methylated 366.5, 0%=no phytotoxic effects, 100%=all plants killed
From the text: (§1) Seeds of spring oilseed rape homozygous for HETO132 and HETO134, and seeds of spring oilseed rape homozygous for HETO133 and HETO 134 were sown in a field according to typical practical agricultural methods. Several ALS inhibitor herbicides were applied to the oilseed rape plants by using specific spray equipment for small plot applications. […] The use of all herbicides in the test lead to a clearly better tolerance of the spring oilseed rape lines homozygous for HETO132 and HETO134 as compared to a standard variety not comprising ALS alleles according to the invention.

[2] = tested on: oilseed rape homozygous for HETO133 and HETO134; assay: Field test of visible phytotoxicity upon herbicide spraying, HETO133-HETO134; assay type: in vivo, Brassica napus; details: g ai/ha: imazamox 40, bispyribac-sodium 50, propoxycarbazone-sodium 70, mesosulfuron-methyl 60, pyroxsulam 12.5 + cloquintocet-mexyl 37.5, each + rapeseed oil methylated 366.5, 0%=no phytotoxic effects, 100%=all plants killed
From the text: as §1

[3] = tested on: oilseed rape homozygous for HETO132 and HETO134; assay: Field test of visible phytotoxicity upon herbicide spraying, HETO132-HETO134; assay type: in vivo, Brassica napus; details: g ai/ha: imazamox 40, bispyribac-sodium 50, propoxycarbazone-sodium 70, mesosulfuron-methyl 60, pyroxsulam 12.5 + cloquintocet-mexyl 37.5, each + rapeseed oil methylated 366.5, 0%=no phytotoxic effects, 100%=all plants killed
From the text: as §1

[4] = molecular target: mixture of two ALS proteins, one comprising the P197S and the other the W574L mutation (Arabidopsis thaliana, UniProt P17597, P197S/W574L); assay: biochemical; details: for Resistance Factor P197S & W574L (mixture): calculated mixture of two ALS proteins, relative to WT; for pI50 P197S & W574L (mixture): mixture of two ALS proteins, calculated as described in WO 2013/127766
[5] = molecular target: AHAS protein comprising the P197S mutation (Arabidopsis thaliana, UniProt P17597, P197S); assay: biochemical; details: for Resistance Factor P197S: AHAS P197S relative to WT; for pI50 P197S: AHAS P197S
Procedure: (§2) Bacteria are grown at 37° C. in LB-medium containing 100 mg/l carbenicillin and 25 mg/l canamycin, induced with 1 mM isopropyl-β-D-thiogalactopyranoside at an OD600 of 0.6, cultivated for 16 hours at 18° C. and harvested by, e.g., centrifugation. Bacterial pellets are resuspended in 100 mM sodium phosphate buffer pH 7.0 containing 0.1 mM thiamine-pyrophosphate, 1 mM MgCl2, and 1 μM FAD at a concentration of 1 gram wet weight per 25 ml of buffer and disrupted by, e.g., sonification. The crude protein extract obtained after centrifugation is used for ALS activity measurements.
(§3) ALS protein can be extracted from leaves or tissue cultures, such as B. napus or B. juncea leaves, or B. napus or B. juncea tissue cultures as described by Ray (Plant Physiol, 1984, 75:827-831). An ALS assays can be carried out in 96-well microtiter plates using a modification of the procedure described by Ray (1984): The reaction mixture contains 20 mM potassium phosphate buffer pH 7.0, 20 mM sodium pyruvate, 0.45 mM thiamine-pyrophosphate, 0.45 mM MgCl2, 9 μM FAD. ALS enzyme and various concentrations of ALS inhibitors can be mixed in a final volume of 90 μl. Assays can be initiated by adding enzyme and the assays can be terminated after 75 min incubation at 30° C. by the addition of 40 μl 0.5 M H2SO4.

[6] = molecular target: AHAS protein comprising the W574L mutation (Arabidopsis thaliana, UniProt P17597, W574L); assay: biochemical; details: for Resistance Factor W574L: AHAS W574L relative to WT; for pI50 W574L: AHAS W574L
Procedure: as §2, §3

[7] = molecular target: AHAS protein comprising both the P197S and W574L mutation in one ALS protein (Arabidopsis thaliana, UniProt P17597, P197S/W574L); assay type: biochemical; details: both mutations in one ALS protein; for Resistance Factor P197S-W574L (in one protein): relative to WT
Procedure: as §2, §3

AHAS protein WT = AHAS protein WT (Arabidopsis thaliana, UniProt P17597); assay: biochemical; details: for pI50 WT: AHAS WT
Procedure: as §2, §3

Sequence of AHAS protein WT (P17597 56-670): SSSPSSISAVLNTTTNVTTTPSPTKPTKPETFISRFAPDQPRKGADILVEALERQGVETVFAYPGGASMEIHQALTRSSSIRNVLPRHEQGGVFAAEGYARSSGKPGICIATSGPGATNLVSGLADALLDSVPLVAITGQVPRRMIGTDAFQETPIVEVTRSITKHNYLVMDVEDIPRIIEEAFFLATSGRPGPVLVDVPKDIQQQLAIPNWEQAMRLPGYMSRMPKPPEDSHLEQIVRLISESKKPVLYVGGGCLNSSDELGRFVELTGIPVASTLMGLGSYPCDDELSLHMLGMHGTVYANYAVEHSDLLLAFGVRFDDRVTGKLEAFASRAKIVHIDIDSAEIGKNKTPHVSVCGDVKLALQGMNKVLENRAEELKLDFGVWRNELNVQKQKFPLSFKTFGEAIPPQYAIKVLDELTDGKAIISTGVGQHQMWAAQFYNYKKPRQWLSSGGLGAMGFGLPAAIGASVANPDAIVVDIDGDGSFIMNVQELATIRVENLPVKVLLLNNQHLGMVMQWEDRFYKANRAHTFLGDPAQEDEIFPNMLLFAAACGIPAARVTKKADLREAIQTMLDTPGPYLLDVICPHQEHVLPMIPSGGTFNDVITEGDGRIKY
Sequence of mixture of two ALS proteins, one comprising the P197S and the other the W574L mutation (P17597 56-670 P197S/W574L): as the sequence (P17597 56-670) above, with P142S, W519L counted along it
Sequence of AHAS protein comprising both the P197S and W574L mutation in one ALS protein (P17597 56-670 P197S/W574L): as the sequence (P17597 56-670) above, with P142S, W519L counted along it
Sequence of AHAS protein comprising the W574L mutation (P17597 56-670 W574L): as the sequence (P17597 56-670) above, with W519L counted along it
Sequence of AHAS protein comprising the P197S mutation (P17597 56-670 P197S): as the sequence (P17597 56-670) above, with P142S counted along it

SMILES: CCCOc1nn(C(=O)[N-]S(=O)(=O)c2ccccc2C(=O)OC)c(=O)n1C.[Na+] [PROPOXYCARBAZONE-SODIUM, propoxycarbazone-sodium]
- Percentage phytotoxicity 9 DAA wild-type [1]: 76.7%
- Percentage phytotoxicity 16 DAA wild-type [1]: 97%
- Percentage phytotoxicity 24 DAA wild-type [1]: 97.7%
- Percentage phytotoxicity 9 DAA HETO133-HETO134 [2]: 53.3%
- Percentage phytotoxicity 16 DAA HETO133-HETO134 [2]: 82.7%
- Percentage phytotoxicity 24 DAA HETO133-HETO134 [2]: 76.7%
- Percentage phytotoxicity 9 DAA HETO132-HETO134 [3]: 40%
- Percentage phytotoxicity 16 DAA HETO132-HETO134 [3]: 36.7%
- Percentage phytotoxicity 24 DAA HETO132-HETO134 [3]: 11.7%

SMILES: COC(=O)c1csc(C)c1S(=O)(=O)NC(=O)n1nc(OC)n(C)c1=O [Thiencarbazone-methyl, thiencarbazone-methyl]
- Resistance Factor P197S & W574L (mixture) [4]: 1259
- Resistance Factor P197S [5]: 1173
- Resistance Factor W574L [6]: 1173
- Resistance Factor P197S-W574L (in one protein) [7]: >7399

SMILES: COC(=O)c1ccc(I)cc1S(=O)(=O)[N-]C(=O)Nc1nc(C)nc(OC)n1.[Na+] [Iodosulfuron-methy-sodium, iodosulfuron-methyl-sodium]
- Resistance Factor P197S & W574L (mixture) [4]: 316
- Resistance Factor P197S [5]: 139
- Resistance Factor W574L [6]: 555
- Resistance Factor P197S-W574L (in one protein) [7]: >35030

SMILES: COc1cc(OC)nc(NC(=O)NS(=O)(=O)N(C)S(C)(=O)=O)n1 [Amidosulfuron, amidosulfuron]
- IC50 [4]: > 100000 nM
- Resistance Factor P197S & W574L (mixture) [4]: >501
- IC50 [5]: > 100000 nM
- Resistance Factor P197S [5]: >488
- IC50 (AHAS protein WT): 200 nM
- IC50 [6]: > 100000 nM
- Resistance Factor W574L [6]: >488
- pI50 P197S-W574L (in one protein) [7]: <4
- Resistance Factor P197S-W574L (in one protein) [7]: >488

SMILES: COc1cc(OC)nc(NC(=O)NS(=O)(=O)c2ncccc2C(F)(F)F)n1 [Flazasulfuron, flazasulfuron]
- IC50 [4]: 631 nM
- Resistance Factor P197S & W574L (mixture) [4]: 794
- IC50 [5]: 100 nM
- Resistance Factor P197S [5]: 120
- IC50 (AHAS protein WT): 0.794 nM
- IC50 [6]: 3160 nM
- Resistance Factor W574L [6]: 3802
- pI50 P197S-W574L (in one protein) [7]: <4
- Resistance Factor P197S-W574L (in one protein) [7]: >120226

SMILES: CCS(=O)(=O)c1nc2ccccn2c1S(=O)(=O)NC(=O)Nc1nc(OC)cc(OC)n1 [Sulfosulfuron, sulfosulfuron]
- IC50 [4]: 251000 nM
- Resistance Factor P197S & W574L (mixture) [4]: 10000
- IC50 [5]: 39800 nM
- Resistance Factor P197S [5]: 1848
- IC50 (AHAS protein WT): 20 nM
- IC50 [6]: > 100000 nM
- Resistance Factor W574L [6]: >4641
- pI50 P197S-W574L (in one protein) [7]: <4
- Resistance Factor P197S-W574L (in one protein) [7]: >4641

SMILES: COC(=O)c1ccccc1S(=O)(=O)NC(=O)Nc1nc(C)nc(OC)n1 [Metsulfuron-methyl, metsulfuron-methyl]
- Resistance Factor P197S [5]: 38
- Resistance Factor W574L [6]: 755
- Resistance Factor P197S-W574L (in one protein) [7]: >7547

SMILES: COC(=O)c1ccc(C(F)(F)F)nc1S(=O)(=O)NC(=O)Nc1nc(OC)cc(OC)n1 [Flupyrsulfuron-methyl]
- Resistance Factor P197S-W574L (in one protein) [7]: >47863

SMILES: COC(=O)c1sccc1S(=O)(=O)NC(=O)Nc1nc(C)nc(OC)n1 [Thifensulfuron-Methyl, thifensulfuron-methyl]
- IC50 [4]: 25100 nM
- Resistance Factor P197S & W574L (mixture) [4]: 631
- IC50 [5]: 7940 nM
- Resistance Factor P197S [5]: 200
- IC50 (AHAS protein WT): 39.8 nM
- IC50 [6]: 63100 nM
- Resistance Factor W574L [6]: 1585
- pI50 P197S-W574L (in one protein) [7]: <4
- Resistance Factor P197S-W574L (in one protein) [7]: >2511

SMILES: COc1cc(OC)n2nc(NS(=O)(=O)c3c(C(F)(F)F)ccnc3OC)nc2n1 [Pyroxsulam, pyroxsulam]
- Resistance Factor P197S & W574L (mixture) [4]: 6310
- pI50 P197S & W574L (mixture) [4]: 4.8
- pI50 P197S [5]: 6.2
- Resistance Factor P197S [5]: 261
- pI50 WT (AHAS protein WT): 8.6
- pI50 W574L [6]: <4
- Resistance Factor W574L [6]: >41368
- pI50 P197S-W574L (in one protein) [7]: <4
- Resistance Factor P197S-W574L (in one protein) [7]: >41368

SMILES: CCS(=O)(=O)c1cccnc1S(=O)(=O)NC(=O)Nc1nc(OC)cc(OC)n1 [Rimsulfuron, rimsulfuron]
- IC50 [4]: 2000 nM
- Resistance Factor P197S & W574L (mixture) [4]: 63
- IC50 [5]: 398 nM
- Resistance Factor P197S [5]: 18
- IC50 (AHAS protein WT): 20 nM
- IC50 [6]: 10000 nM
- Resistance Factor W574L [6]: 447
- pI50 P197S-W574L (in one protein) [7]: <4
- Resistance Factor P197S-W574L (in one protein) [7]: >4466

SMILES: COc1cc(OC)n2nc(S(=O)(=O)Nc3c(Cl)ccc(C)c3Cl)nc2n1 [Metosulam, metosulam]
- IC50 [4]: 6310 nM
- Resistance Factor P197S & W574L (mixture) [4]: 2512
- IC50 [5]: 1580 nM
- Resistance Factor P197S [5]: 457
- IC50 (AHAS protein WT): 3.16 nM
- IC50 [6]: 20000 nM
- Resistance Factor W574L [6]: 5754
- pI50 P197S-W574L (in one protein) [7]: <4
- Resistance Factor P197S-W574L (in one protein) [7]: >28840

SMILES: CCCOc1nn(C(=O)[N-]S(=O)(=O)c2ccccc2C(=O)OC)c(=O)n1C.[Na+] [Propoxycarbazone]
- Resistance Factor P197S & W574L (mixture) [4]: 200
- Resistance Factor P197S [5]: 147
- Resistance Factor W574L [6]: 293
- Resistance Factor P197S-W574L (in one protein) [7]: >4641

SMILES: COc1cc(OC)nc(NC(=O)NS(=O)(=O)c2ncccc2C(=O)N(C)C)n1 [Nicosulfuron, nicosulfuron]
- IC50 [4]: 31600 nM
- Resistance Factor P197S & W574L (mixture) [4]: 251
- IC50 [5]: 1000 nM
- Resistance Factor P197S [5]: 6
- IC50 (AHAS protein WT): 158 nM
- IC50 [6]: > 100000 nM
- Resistance Factor W574L [6]: >607
- pI50 P197S-W574L (in one protein) [7]: <4
- Resistance Factor P197S-W574L (in one protein) [7]: >607

SMILES: COc1ncc(F)c2nc(S(=O)(=O)Nc3c(F)cccc3F)nn12 [Florasulam, florasulam]
- Resistance Factor P197S & W574L (mixture) [4]: 200
- pI50 P197S & W574L (mixture) [4]: 5.5
- pI50 P197S [5]: 6.4
- Resistance Factor P197S [5]: 28
- pI50 WT (AHAS protein WT): 7.8
- pI50 W574L [6]: 4.6
- Resistance Factor W574L [6]: 1738
- pI50 P197S-W574L (in one protein) [7]: <4
- Resistance Factor P197S-W574L (in one protein) [7]: >6918

SMILES: COC(=O)c1ccc(CNS(C)(=O)=O)cc1S(=O)(=O)NC(=O)Nc1nc(OC)cc(OC)n1 [Mesosulfuron-methyl, mesosulfuron-methyl]
- Resistance Factor P197S & W574L (mixture) [4]: 794
- Resistance Factor P197S [5]: 65
- Resistance Factor W574L [6]: 25770
- Resistance Factor P197S-W574L (in one protein) [7]: >64730
